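Interpolation was linear, between the two tested concentrations surrounding the appropriate level; five concentrations were tested over 48 hours in 96-well plates. At the GI50, growth is halved. TGI denotes the concentration required for complete inhibition of growth.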
Experiments:
Test in all cases: DTP human tumour cell line panel, 48 h
HCT-116 colon = test system: HCT-116 colon
A549 NSCLC = test system: A549 NSCLC
MOLT-4 leukemia = test system: MOLT-4 leukemia
CCRF-CEM leukemia = test system: CCRF-CEM leukemia
MDA-MB-231 breast = test system: MDA-MB-231 breast
RXF 393 renal = test system: RXF 393 renal
UACC-62 melanoma = test system: UACC-62 melanoma
SNB-19 CNS = test system: SNB-19 CNS
CAKI-1 renal = test system: CAKI-1 renal
BT-549 breast = test system: BT-549 breast
OVCAR-3 ovarian = test system: OVCAR-3 ovarian
SK-MEL-5 melanoma = test system: SK-MEL-5 melanoma
SN12C renal = test system: SN12C renal
SK-MEL-2 melanoma = test system: SK-MEL-2 melanoma
MALME-3M melanoma = test system: MALME-3M melanoma
PC-3 prostate = test system: PC-3 prostate
HL-60(TB) leukemia = test system: HL-60(TB) leukemia
NCI/ADR-RES ovarian = test system: NCI/ADR-RES ovarian
SNB-75 CNS = test system: SNB-75 CNS
OVCAR-8 ovarian = test system: OVCAR-8 ovarian
HOP-62 NSCLC = test system: HOP-62 NSCLC
NCI-H522 lung = test system: NCI-H522 lung
SF-539 CNS = test system: SF-539 CNS
MDA-MB-435 = test system: MDA-MB-435
OVCAR-5 ovarian = test system: OVCAR-5 ovarian
IGROV1 ovarian = test system: IGROV1 ovarian
COLO 205 colon = test system: COLO 205 colon
SK-MEL-28 melanoma = test system: SK-MEL-28 melanoma
NCI-H226 lung = test system: NCI-H226 lung
MCF7 breast = test system: MCF7 breast
A498 renal = test system: A498 renal
U251 CNS = test system: U251 CNS
SF-295 CNS = test system: SF-295 CNS
M14 melanoma = test system: M14 melanoma
SW-620 colon = test system: SW-620 colon
NCI-H460 lung = test system: NCI-H460 lung
HCT-15 colon = test system: HCT-15 colon
HCC-2998 colon = test system: HCC-2998 colon
T-47D breast = test system: T-47D breast
RPMI-8226 leukemia = test system: RPMI-8226 leukemia
ACHN renal = test system: ACHN renal
HT29 colon = test system: HT29 colon
SK-OV-3 ovarian = test system: SK-OV-3 ovarian
K-562 leukemia = test system: K-562 leukemia
SF-268 CNS = test system: SF-268 CNS
OVCAR-4 ovarian = test system: OVCAR-4 ovarian
786-0 renal = test system: 786-0 renal
KM12 colon = test system: KM12 colon
HS 578T breast = test system: HS 578T breast
UO-31 renal = test system: UO-31 renal
DU-145 prostate = test system: DU-145 prostate
HOP-92 NSCLC = test system: HOP-92 NSCLC
NCI-H23 lung = test system: NCI-H23 lung
UACC-257 melanoma = test system: UACC-257 melanoma
TK-10 renal = test system: TK-10 renal
LOX IMVI melanoma = test system: LOX IMVI melanoma

Cn1c([N+](=O)[O-])cnc1/C=C1\Oc2ccc(Br)cc2C1=O
GI50 (HCT-116 colon): 179 nM
TGI (HCT-116 colon): 652 nM
GI50 (A549 NSCLC): 927 nM
TGI (A549 NSCLC): 5200 nM
GI50 (MOLT-4 leukemia): 316 nM
TGI (MOLT-4 leukemia): 7300 nM
GI50 (CCRF-CEM leukemia): 200 nM
TGI (CCRF-CEM leukemia): 706 nM
GI50 (MDA-MB-231 breast): 374 nM
TGI (MDA-MB-231 breast): 4810 nM
GI50 (RXF 393 renal): 416 nM
TGI (RXF 393 renal): 1940 nM
GI50 (UACC-62 melanoma): 993 nM
TGI (UACC-62 melanoma): 2680 nM
GI50 (SNB-19 CNS): 1190 nM
TGI (SNB-19 CNS): 6170 nM
GI50 (CAKI-1 renal): 277 nM
TGI (CAKI-1 renal): 950 nM
GI50 (BT-549 breast): 715 nM
TGI (BT-549 breast): 4760 nM
GI50 (OVCAR-3 ovarian): 276 nM
TGI (OVCAR-3 ovarian): 690 nM
GI50 (SK-MEL-5 melanoma): 213 nM
TGI (SK-MEL-5 melanoma): 586 nM
GI50 (SN12C renal): 421 nM
TGI (SN12C renal): 4160 nM
GI50 (SK-MEL-2 melanoma): 445 nM
TGI (SK-MEL-2 melanoma): 1960 nM
GI50 (MALME-3M melanoma): 683 nM
TGI (MALME-3M melanoma): 2210 nM
GI50 (PC-3 prostate): 471 nM
GI50 (HL-60(TB) leukemia): 334 nM
TGI (HL-60(TB) leukemia): 1570 nM
GI50 (NCI/ADR-RES ovarian): 609 nM
TGI (NCI/ADR-RES ovarian): 74400 nM
GI50 (SNB-75 CNS): 1040 nM
TGI (SNB-75 CNS): 4450 nM
GI50 (OVCAR-8 ovarian): 266 nM
GI50 (HOP-62 NSCLC): 1140 nM
TGI (HOP-62 NSCLC): 3950 nM
GI50 (NCI-H522 lung): 357 nM
TGI (NCI-H522 lung): 1040 nM
GI50 (SF-539 CNS): 922 nM
TGI (SF-539 CNS): 3280 nM
GI50 (MDA-MB-435): 253 nM
TGI (MDA-MB-435): 731 nM
GI50 (OVCAR-5 ovarian): 1480 nM
TGI (OVCAR-5 ovarian): 5640 nM
GI50 (IGROV1 ovarian): 469 nM
GI50 (COLO 205 colon): 925 nM
TGI (COLO 205 colon): 3170 nM
GI50 (SK-MEL-28 melanoma): 532 nM
TGI (SK-MEL-28 melanoma): 2870 nM
GI50 (NCI-H226 lung): 1380 nM
TGI (NCI-H226 lung): 4890 nM
GI50 (MCF7 breast): 330 nM
TGI (MCF7 breast): 7970 nM
GI50 (A498 renal): 1720 nM
TGI (A498 renal): 4670 nM
GI50 (U251 CNS): 466 nM
TGI (U251 CNS): 2540 nM
GI50 (SF-295 CNS): 1700 nM
TGI (SF-295 CNS): 7850 nM
GI50 (M14 melanoma): 445 nM
TGI (M14 melanoma): 2100 nM
GI50 (SW-620 colon): 157 nM
TGI (SW-620 colon): 537 nM
GI50 (NCI-H460 lung): 253 nM
TGI (NCI-H460 lung): 654 nM
GI50 (HCT-15 colon): 193 nM
TGI (HCT-15 colon): 657 nM
GI50 (HCC-2998 colon): 995 nM
TGI (HCC-2998 colon): 3620 nM
GI50 (T-47D breast): 5410 nM
TGI (T-47D breast): > 75900 nM
GI50 (RPMI-8226 leukemia): 352 nM
TGI (RPMI-8226 leukemia): 2870 nM
GI50 (ACHN renal): 212 nM
TGI (ACHN renal): 585 nM
GI50 (HT29 colon): 231 nM
TGI (HT29 colon): 622 nM
GI50 (SK-OV-3 ovarian): 1450 nM
TGI (SK-OV-3 ovarian): 6080 nM
GI50 (K-562 leukemia): 400 nM
TGI (K-562 leukemia): 3280 nM
GI50 (SF-268 CNS): 299 nM
TGI (SF-268 CNS): 933 nM
GI50 (OVCAR-4 ovarian): 1580 nM
TGI (OVCAR-4 ovarian): > 20200 nM
GI50 (786-0 renal): 557 nM
TGI (786-0 renal): 2070 nM
GI50 (KM12 colon): 312 nM
TGI (KM12 colon): 957 nM
GI50 (HS 578T breast): 890 nM
TGI (HS 578T breast): > 23400 nM
GI50 (UO-31 renal): 240 nM
TGI (UO-31 renal): 765 nM
GI50 (DU-145 prostate): 338 nM
TGI (DU-145 prostate): 933 nM
GI50 (HOP-92 NSCLC): 369 nM
TGI (HOP-92 NSCLC): 2580 nM
GI50 (NCI-H23 lung): 432 nM
TGI (NCI-H23 lung): 2350 nM
GI50 (UACC-257 melanoma): 854 nM
TGI (UACC-257 melanoma): 4070 nM
GI50 (TK-10 renal): 671 nM
TGI (TK-10 renal): 2640 nM
GI50 (LOX IMVI melanoma): 209 nM
TGI (LOX IMVI melanoma): 543 nM

— PubChem BioAssay (NCI)
